Assay results as given in PubChem BioAssay (NCI).
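Where inhibition never reached the appropriate level, the endpoint shown equals the highest concentration tested. Otherwise, values were interpolated linearly from a five-concentration, 48-hour dose response in 96-well plates. Abbreviation: GI50, concentration required for 50% inhibition of growth. TGI is the concentration that stops growth completely.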

Assays:
Assay in all cases: inhibition of tumour cell growth, NCI panel, 48 h
[1] = tested on: 786-0 renal
[2] = tested on: A498 renal
[3] = tested on: A549 NSCLC
[4] = tested on: ACHN renal
[5] = tested on: BT-549 breast
[6] = tested on: CAKI-1 renal
[7] = tested on: CCRF-CEM leukemia
[8] = tested on: COLO 205 colon
[9] = tested on: DU-145 prostate
[10] = tested on: EKVX NSCLC
[11] = tested on: HCC-2998 colon
[12] = tested on: HCT-116 colon
[13] = tested on: HCT-15 colon
[14] = tested on: HL-60(TB) leukemia
[15] = tested on: HOP-62 NSCLC
[16] = tested on: HOP-92 NSCLC
[17] = tested on: HS 578T breast
[18] = tested on: HT29 colon
[19] = tested on: IGROV1 ovarian
[20] = tested on: K-562 leukemia
[21] = tested on: KM12 colon
[22] = tested on: LOX IMVI melanoma
[23] = tested on: MCF7 breast
[24] = tested on: MDA-MB-435
[25] = tested on: MOLT-4 leukemia
[26] = tested on: NCI-H226 lung
[27] = tested on: NCI-H23 lung
[28] = tested on: NCI-H460 lung
[29] = tested on: NCI-H522 lung
[30] = tested on: NCI/ADR-RES ovarian
[31] = tested on: OVCAR-3 ovarian
[32] = tested on: OVCAR-4 ovarian
[33] = tested on: OVCAR-5 ovarian
[34] = tested on: OVCAR-8 ovarian
[35] = tested on: PC-3 prostate
[36] = tested on: RPMI-8226 leukemia
[37] = tested on: RXF 393 renal
[38] = tested on: SF-268 CNS
[39] = tested on: SF-295 CNS
[40] = tested on: SK-MEL-2 melanoma
[41] = tested on: SK-MEL-28 melanoma
[42] = tested on: SK-MEL-5 melanoma
[43] = tested on: SK-OV-3 ovarian
[44] = tested on: SN12C renal
[45] = tested on: SNB-19 CNS
[46] = tested on: SNB-75 CNS
[47] = tested on: SR leukemia
[48] = tested on: SW-620 colon
[49] = tested on: T-47D breast
[50] = tested on: TK-10 renal
[51] = tested on: U251 CNS
[52] = tested on: UACC-257 melanoma
[53] = tested on: UO-31 renal

With Oc1ccc(/C=N\Nc2ccccn2)c(O)c1 the GI50 [1] was 1530 nM, the TGI [1] was greater than 100000 nM and the GI50 [2] was 1870 nM. For the same compound, the TGI [2] was 7170 nM, the GI50 [3] was 2510 nM and the TGI [3] was greater than 100000 nM. It also gave a GI50 [4] of 338 nM, a TGI [4] of 2820 nM and a GI50 [5] of 4870 nM. For the same compound, the TGI [5] was greater than 100000 nM, the GI50 [6] was 252 nM and the TGI [6] was 687 nM. It also gave a GI50 [7] of 1010 nM, a TGI [7] of 8710 nM and a GI50 [8] of 5830 nM. It also gave a TGI [8] greater than 100000 nM, a GI50 [9] of 422 nM and a TGI [9] of 4320 nM. It also gave a GI50 [10] of 1400 nM, a TGI [10] of 7460 nM and a GI50 [11] of 3000 nM. The TGI [11] was greater than 100000 nM, the GI50 [12] was 1700 nM and the TGI [12] was greater than 100000 nM. For the same compound, the GI50 [13] was 533 nM, the TGI [13] was greater than 100000 nM and the GI50 [14] was 243 nM. For the same compound, the TGI [14] was 783 nM, the GI50 [15] was 2140 nM and the TGI [15] was 9550 nM. For the same compound, the GI50 [16] was 5020 nM, the TGI [16] was greater than 100000 nM and the GI50 [17] was 4990 nM. The TGI [17] was greater than 100000 nM, the GI50 [18] was 4800 nM and the TGI [18] was greater than 100000 nM. The GI50 [19] was 638 nM, the TGI [19] was 3640 nM and the GI50 [20] was 482 nM. The TGI [20] was greater than 100000 nM, the GI50 [21] was 1510 nM and the TGI [21] was 20400 nM. The GI50 [22] was 1960 nM, the TGI [22] was greater than 100000 nM and the GI50 [23] was 1760 nM. The TGI [23] was 11000 nM, the GI50 [24] was 1370 nM and the TGI [24] was greater than 100000 nM. For the same compound, the GI50 [25] was 382 nM, the TGI [25] was 10600 nM and the GI50 [26] was 2250 nM. It also gave a TGI [26] of 7030 nM, a GI50 [27] of 783 nM and a TGI [27] greater than 100000 nM. For the same compound, the GI50 [28] was 443 nM, the TGI [28] was 3990 nM and the GI50 [29] was 1290 nM. It also gave a TGI [29] greater than 100000 nM, a GI50 [30] of 364 nM and a TGI [30] greater than 100000 nM. It also gave a GI50 [31] of 1770 nM, a TGI [31] greater than 100000 nM and a GI50 [32] of 2870 nM. The TGI [32] was greater than 100000 nM, the GI50 [33] was 5480 nM and the TGI [33] was greater than 100000 nM. It also gave a GI50 [34] of 645 nM, a TGI [34] greater than 100000 nM and a GI50 [35] of 4560 nM. The TGI [35] was greater than 100000 nM, the GI50 [36] was 1450 nM and the TGI [36] was greater than 100000 nM. The GI50 [37] was 2240 nM, the TGI [37] was 53400 nM and the GI50 [38] was 494 nM. It also gave a TGI [38] of 6000 nM, a GI50 [39] of 318 nM and a TGI [39] of 767 nM. For the same compound, the GI50 [40] was 9430 nM, the TGI [40] was greater than 100000 nM and the GI50 [41] was 16000 nM. It also gave a TGI [41] greater than 100000 nM, a GI50 [42] of 2170 nM and a TGI [42] greater than 100000 nM. It also gave a GI50 [43] of 3240 nM, a TGI [43] greater than 100000 nM and a GI50 [44] of 2480 nM. For the same compound, the TGI [44] was greater than 100000 nM, the GI50 [45] was 2970 nM and the TGI [45] was greater than 100000 nM. The GI50 [46] was 1460 nM, the TGI [46] was 6620 nM and the GI50 [47] was 311 nM. For the same compound, the TGI [47] was 11700 nM, the GI50 [48] was 1520 nM and the TGI [48] was greater than 100000 nM. For the same compound, the GI50 [49] was 2410 nM, the TGI [49] was greater than 100000 nM and the GI50 [50] was 8410 nM. For the same compound, the TGI [50] was greater than 100000 nM, the GI50 [51] was 773 nM and the TGI [51] was greater than 100000 nM. It also gave a GI50 [52] of 2730 nM, a TGI [52] of 16700 nM and a GI50 [53] of 241 nM. The TGI [53] was 719 nM.
